Read-outs that look alike come from different tables or passages of the source. Bounds are passed on as bounds.

One test addresses HDAC. Kind of test: Inhibition of histone deacetylase (HDAC). Format: biochemical. As to conditions: read-out: Average IC50 against HDAC.
The target of the next test is LF (Bacillus anthracis, UniProt P15917). Nature of the test: biochemical. On the set-up: species or system B. anthracis.
Test [1] relates to neonatal rat cardiac fibroblasts. Kind of test: Cell invasion assay (Chemicon ECM 555). Format: cell-based. As to conditions: 250 nM, 20 h. As for the experimental part:
Cell Invasion Assay. A cell invasion assay kit was purchased from Chemicon International (Cat. No. ECM 555) and the assay was performed as per kit instructions with minor modifications. Rat cardiac fibroblasts (CF) were prepared as previously described (F. J. Villarreal, N. N. Kim, G. D. Ungab, M. P. Printz, W. H. Dillmann, Circulation 1993, 88, 2849). Briefly, CF were prepared from hearts of 1-2 day old Sprague Dawley rats. Following collagenase digestions (4×), non-myocyte cells (mostly fibroblasts) were isolated by Percoll density gradient. The cell suspension was plated onto uncoated tissue culture dishes for 30 min to allow preferential attachment of CF to the bottom of the dish. The non-adherent cells were removed and fresh media (Dulbecco's modified Eagle's media +10% fetal bovine serum) was added. CF were allowed to proliferate to confluence and then trypsinized and frozen at −70° C. Stocks were freshly plated for the experiment and used from second passage. When reaching 90% confluence, cells were serum deprived for 24 h and then treated according to the experimental design (vide infra).
The CF were trypsinized once more and suspended in fresh serum-free media. Inhibitors AM-5 and AM-6 were dissolved in DMSO and diluted 10-fold in serum free media. […] Increased fluorescence indicates the presence of invaded cells. […]

The target in test [2] is human MMP-2 catalytic domain (Homo sapiens, UniProt P08253). Kind of test: MMP-2 fluorescent microplate assay (BIOMOL kit). Format: biochemical. Particulars: for IC50: fluorescence-based assay, 1 h at 37° C. with inhibitor, pH 7.5, read-out: IC50 against MMP-2. The source says:
(§1) Experiments were repeated at least three times.

In test [3] the target is T1, human MMP-1 catalytic domain (Homo sapiens, UniProt P03956).
T1 sequence (P03956 100-268): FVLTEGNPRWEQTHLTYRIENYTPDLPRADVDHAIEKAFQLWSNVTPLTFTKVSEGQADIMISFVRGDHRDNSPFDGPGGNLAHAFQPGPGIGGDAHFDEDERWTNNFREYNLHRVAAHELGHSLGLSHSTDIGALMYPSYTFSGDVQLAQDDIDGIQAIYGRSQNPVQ
Kind of test: MMP-1 fluorescent microplate assay (BIOMOL kit). Format: biochemical. As to conditions: fluorescence-based assay, 1 h at 37° C. with inhibitor, pH 7.5; read-out: IC50 against MMP-1.
Text: as §1

[4] abbreviates: read-out: Average IC50 against LF.

LF, sequence (P15917 34-809 limits assumed): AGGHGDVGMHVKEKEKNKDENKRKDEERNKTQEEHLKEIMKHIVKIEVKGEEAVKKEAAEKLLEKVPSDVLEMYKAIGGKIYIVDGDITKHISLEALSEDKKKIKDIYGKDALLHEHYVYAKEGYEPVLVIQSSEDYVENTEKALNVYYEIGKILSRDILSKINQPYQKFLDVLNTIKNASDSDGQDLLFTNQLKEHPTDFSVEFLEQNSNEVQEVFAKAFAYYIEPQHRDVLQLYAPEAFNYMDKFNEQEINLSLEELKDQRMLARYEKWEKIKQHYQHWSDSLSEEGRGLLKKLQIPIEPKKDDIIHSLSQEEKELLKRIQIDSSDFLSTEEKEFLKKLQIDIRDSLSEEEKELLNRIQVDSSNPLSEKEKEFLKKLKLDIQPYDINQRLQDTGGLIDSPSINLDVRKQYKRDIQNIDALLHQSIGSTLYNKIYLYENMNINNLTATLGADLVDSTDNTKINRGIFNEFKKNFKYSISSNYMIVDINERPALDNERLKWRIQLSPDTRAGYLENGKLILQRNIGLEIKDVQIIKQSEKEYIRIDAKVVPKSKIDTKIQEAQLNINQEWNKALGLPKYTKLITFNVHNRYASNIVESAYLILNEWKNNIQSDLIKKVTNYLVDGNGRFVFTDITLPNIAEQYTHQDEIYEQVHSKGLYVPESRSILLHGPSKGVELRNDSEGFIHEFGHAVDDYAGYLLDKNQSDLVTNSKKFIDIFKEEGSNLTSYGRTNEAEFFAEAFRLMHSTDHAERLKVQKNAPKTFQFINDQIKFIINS
human MMP-2 catalytic domain, sequence (P08253 110-452): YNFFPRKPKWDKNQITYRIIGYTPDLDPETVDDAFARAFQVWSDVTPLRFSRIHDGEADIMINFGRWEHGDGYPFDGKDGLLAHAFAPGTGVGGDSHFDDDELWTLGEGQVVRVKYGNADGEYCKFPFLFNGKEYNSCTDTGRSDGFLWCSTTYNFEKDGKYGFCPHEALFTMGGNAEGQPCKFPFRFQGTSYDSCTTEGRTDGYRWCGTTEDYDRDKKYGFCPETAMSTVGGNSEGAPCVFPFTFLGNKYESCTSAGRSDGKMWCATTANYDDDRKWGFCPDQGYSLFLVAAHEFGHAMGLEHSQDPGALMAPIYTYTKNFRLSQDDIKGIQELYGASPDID

In general, IC50 refers to the concentration needed to halve the response being measured. Turning to `Cc1occc(=S)c1O` [Thiomaltol, thiomaltol], the figures for the IC50 at HDAC and against LF were 247 µM and 260 µM, respectively.

For `Cc1cc(=O)c(O)c(C(=O)NCc2ccc(-c3ccc(C#N)cc3)cc2)o1` [AM-5, 3-Hydroxy-6-methyl-pyran-4(1H)-one-2-carboxy-N-(4-(4-cyanophenyl)benzylamide)], the “reduction of invasion of neonatal rat cardiac fibroblasts through a collagen membrane” value in test [1] was 67%. The “potency against MMP-2 compared with MMP-3, in words” value in test [2] is “substantially less potent against MMP-2”. Also, the IC50 was 0.61 µM in test [2] and more than 50 µM in test [3].

For `Cc1cc(=O)c(O)c(C(=O)NCc2ccc(-c3ccc(-c4ccccc4)cc3)cc2)o1` [AM-6, 3-Hydroxy-6-methyl-pyran-4(1H)-one-2-carboxy-N-(4-biphenylbenzylamide)], the “reduction of invasion of neonatal rat cardiac fibroblasts through a collagen membrane” value in test [1] came to 55%. Further, in test [2], the “potency against MMP-2 compared with MMP-3, in words” value is listed as “substantially less potent against MMP-2”. The IC50 in test [2] and in test [3] was more than 50 µM each time.

For `Cc1cc(=O)c(O)c(C(=O)NCCc2ccc(-c3ccccc3)cc2)o1` [AM-3], the IC50 was 27 µM in test [2] and more than 50 µM in test [3].

Regarding `On1ccccc1=S` [1,2-HOPTO], the IC50 on HDAC amounted to 860 µM; on LF (setting [4]), 3900 µM.

For the molecule `O=C(NCCc1ccc(-c2ccccc2)cc1)c1occc(=S)c1O` [PY-3S (30)], the midpoint of inhibition against LF, the IC50, lay at 18.5 µM.

On to `Cc1cc(=O)c(O)c(C(=O)Nc2ccc(-c3ccccc3)cc2)o1` [AM-1, 3-Hydroxy-6-methyl-pyran-4(1H)-one-2-carboxy-N-(4-biphenylamide)], for which the IC50 is 36 µM in test [2] and more than 50 µM in test [3].

At LF, `O=C(NCc1ccc(-c2ccccc2)cc1)c1occc(=S)c1O` [PY-2S (27), 3-Hydroxy-4-thiopyrone-2-carboxy-N-(4-phenylbenzylamide)] registered an IC50 of 38 µM.

As to `O=C(NCc1ccc(-c2ccccc2)cc1)c1cccc(=O)n1O` [compound 20], the values for the IC50 in test [2] and in test [3] were 0.9 µM and more than 12.5 µM, respectively.

In the case of `COc1ccc(CNC(=O)c2oc(C)cc(=O)c2O)cc1` [AM-4], in test [2], the “potency against MMP-2 compared with MMP-3, in words” value was “substantially less potent against MMP-2” and the IC50 is more than 50 µM. Further, the half-maximal inhibitory concentration (IC50) in test [3] is more than 50 µM.

Take `CC(=O)NO` [AHA (N-hydroxyacetamide), N-hydroxyacetamide, reference compound]: the IC50 at HDAC was determined as 3200 µM; at LF (setting [4]), 11400 µM.

Take `Cc1cc(=O)c(O)c(C(=O)NCc2ccc(-c3ccccc3)cc2)o1` [AM-2, 3-Hydroxy-6-methyl-pyran-4(1)-one-2-carboxy-N-(4-phenylbenzylamide)]: the “potency against MMP-2 compared with MMP-3, in words” value in test [2] was “substantially less potent against MMP-2”. For the same molecule, the IC50 is 9.3 µM in test [2] and more than 50 µM in test [3].

(Values after patent publication US7579486B2, “Metalloprotein inhibitors” (Regents of the University of California, San Diego, priority 2004, dated 2009).)
